# Measured values reported in patent US20140288052A1, “SUBSTITUTED BICYCLIC AZA-HETEROCYCLES AND ANALOGUES AS SIRTUIN MODULATORS” (GlaxoSmithKline, LLC, priority 2011, published 2014).
# Experiments:
# [1] = molecular target: T1, SIRT1 (Homo sapiens, UniProt Q96EB6); assay: TAMRA based mass spectrometry assay of SIRT1 deacetylase activation; format: biochemical; details: TAMRA peptide substrate; for TAMRA EC1.5 (μM): concentration that results in 150% activation of SIRT1; for TAMRA % Fold Act: percent maximum fold activation relative to control (100%)
# T1 sequence (Q96EB6 1-747): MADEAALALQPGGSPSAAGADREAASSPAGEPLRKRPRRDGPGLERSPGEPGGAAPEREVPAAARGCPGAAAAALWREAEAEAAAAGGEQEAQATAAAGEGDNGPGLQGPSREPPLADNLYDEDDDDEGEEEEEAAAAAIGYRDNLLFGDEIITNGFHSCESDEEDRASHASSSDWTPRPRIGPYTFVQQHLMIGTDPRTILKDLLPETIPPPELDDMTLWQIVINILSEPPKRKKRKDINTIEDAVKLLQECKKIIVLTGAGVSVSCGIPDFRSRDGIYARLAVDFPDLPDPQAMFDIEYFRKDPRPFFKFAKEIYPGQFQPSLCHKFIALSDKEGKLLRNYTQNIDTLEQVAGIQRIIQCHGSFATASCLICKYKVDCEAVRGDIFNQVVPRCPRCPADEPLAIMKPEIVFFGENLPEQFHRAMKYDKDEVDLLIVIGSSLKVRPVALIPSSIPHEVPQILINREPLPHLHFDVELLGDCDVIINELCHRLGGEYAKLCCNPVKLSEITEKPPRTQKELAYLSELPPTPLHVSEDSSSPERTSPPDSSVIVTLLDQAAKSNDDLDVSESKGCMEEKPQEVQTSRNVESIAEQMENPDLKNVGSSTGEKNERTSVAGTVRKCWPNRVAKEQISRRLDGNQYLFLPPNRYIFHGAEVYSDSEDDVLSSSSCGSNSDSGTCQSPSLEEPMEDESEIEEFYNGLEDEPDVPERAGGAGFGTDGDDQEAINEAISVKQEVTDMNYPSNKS
# Source text: (§1) Mass spectrometry based assays were used to identify modulators of SIRT1 activity. The TAMRA based assay utilized a peptide having 20 amino acid residues as follows: Ac-EE-K(biotin)-GQSTSSHSK(Ac)NleSTEG-K(5TMR)-EE-NH2 (SEQ ID NO: 1), wherein K(Ac) is an acetylated lysine residue and Nle is a norleucine. The peptide was labeled with the fluorophore 5TMR (excitation 540 nm/emission 580 nm) at the C-terminus. The sequence of the peptide substrate was based on p53 with several modifications. In addition, the methionine residue naturally present in the sequence was replaced with the norleucine because the methionine may be susceptible to oxidation during synthesis and purification. The Trp based assay utilized a peptide having an amino acid residues as follows: Ac-R-H-K-K(Ac)-W-NH2 (SEQ ID NO: 2).
# The TAMRA based mass spectrometry assay was conducted as follows: 0.5 μM peptide substrate and 120 μM βNAD^+ was incubated with 10 nM SIRT1 for 25 minutes at 25° C. in a reaction buffer (50 mM Tris-acetate pH 8, 137 mM NaCl, 2.7 mM KCl, 1 mM MgCl2, 5 mM DTT, 0.05% BSA). The SIRT1 protein was obtained by cloning the SirT1 gene into a T7-promoter containing vector, which was then transformed and expressed in BL21(DE3) bacterial cells. Test compound was added at varying concentrations to this reaction mixture and the resulting reactions were monitored. After the 25 minute incubation with SIRT1, 10 μL of 10% formic acid was added to stop the reaction. The resulting reactions were sealed and frozen for later mass spec analysis. Determination of the amount of deacetylated substrate peptide formed (or, alternatively, the amount of O-acetyl-ADP-ribose (OAADPR) generated) by the sirtuin-mediated NAD-dependent deacetylation reaction allowed for the precise measurement of relative SIRT1 activity in the presence of varying concentrations of the test compound versus control reactions lacking the test compound.
# (§2) A control for inhibition of sirtuin activity was conducted by adding 1 μL of 500 mM nicotinamide as a negative control at the start of the reaction (e.g., permits determination of maximum sirtuin inhibition). A control for activation of sirtuin activity was conducted using 10 nM of sirtuin protein, with 1 μL of DMSO in place of compound, to determine the amount of deacetylation of the substrate at a given time point within the linear range of the assay. This time point was the same as that used for test compounds and, within the linear range, the endpoint represents a change in velocity. For the above assay, SIRT1 protein was expressed and purified as follows. The SirT1 gene was cloned into a T7-promoter containing vector and transformed into BL21(DE3). The protein was expressed by induction with 1 mM IPTG as an N-terminal His-tag fusion protein at 18° C. overnight and harvested at 30,000×g. Cells were lysed with lysozyme in lysis buffer (50 mM Tris-HCl, 2 mM Tris[2-carboxyethyl] phosphine (TCEP), 10 μM ZnCl2, 200 mM NaCl) and further treated with sonication for 10 min for complete lysis. The protein was purified over a Ni-NTA column (Amersham) and fractions containing pure protein were pooled, concentrated and run over a sizing column (Sephadex S200 26/60 global). The peak containing soluble protein was collected and run on an Ion-exchange column (MonoQ). Gradient elution (200 mM-500 mM NaCl) yielded pure protein. This protein was concentrated and dialyzed against dialysis buffer (20 mM Tris-HCl, 2 mM TCEP) overnight. The protein was aliquoted and frozen at −80° C. until further use.
# Sirtuin-modulating compounds of Formula (I) that activated SIRT1 were identified using the assay described above and are shown below in Table 1. The EC1.5 values represent the concentration of test compounds that result in 150% activation of SIRT1. The EC1.5 values for the activating compounds of Formula (I) are represented by A (EC1.5<1 μM), B (EC1.5 1−25 μM), C (EC1.5>25 μM). […]
# [2] = molecular target: T1, SIRT1; assay: Trp mass spectrometry assay of SIRT1 deacetylase activation; format: biochemical; details: Trp peptide substrate; for TRP EC1.5 (μM): concentration that results in 150% activation of SIRT1; for TRP % Fold Act: percent maximum fold activation relative to control (100%)
# Source text: as §1
# The Trp mass spectrometry assay was conducted as follows. 0.5 μM peptide substrate and 120 μM βNAD^+ were incubated with 10 nM SIRT1 for 25 minutes at 25° C. in a reaction buffer (50 mM HEPES pH 7.5, […], 1 mM DTT, 0.05% BSA). The SIRT1 protein was obtained by cloning the SirT1 gene into a T7-promoter containing vector, which was then expressed in BL21(DE3) bacterial cells and purified as described in further detail below. Test compound was added at varying concentrations to this reaction mixture and the resulting reactions were monitored. After the 25 minute incubation with SIRT1, 10 μL of 10% formic acid was added to stop the reaction. The resulting reactions were sealed and frozen for later mass spec analysis. The relative SIRT1 activity was then determined by measuring the amount of O-acetyl-ADP-ribose (OAADPR) formed (or, alternatively, the amount of deacetylated Trp peptide generated) by the NAD-dependent sirtuin deacetylation reaction in the presence of varying concentrations of the test compound versus control reactions lacking the test compound. The degree to which the test agent activated deacetylation by SIRT1 was expressed as EC1.5 (i.e., the concentration of compound required to increase SIRT1 activity by 50% over the control lacking test compound), and Percent Maximum Activation (i.e., the maximum activity relative to control (100%) obtained for the test compound).
# as §2
# Sirtuin-modulating compounds of Formula (I) that activated SIRT1 were identified using the assay described above and are shown below in Table 1. […]
TAMRA EC1.5 (μM) [1],TAMRA % Fold Act [1],TRP EC1.5 (μM) [2],TRP % Fold Act [2],SMILES
B (EC1.5 1−25 μM),A (Fold activation≧350%),B (EC1.5 1−25 μM),B (Fold Activation<350%),O=C(Nc1ccnc2cc(-c3ccccc3C(F)(F)F)nn12)c1ccn[nH]1 [Compound 110]
C (EC1.5>25 μM),B (Fold Activation<350%),C (EC1.5>25 μM),B (Fold Activation<350%),O=C(Nc1ccnc2cc(-c3cccc(C(F)(F)F)c3)nn12)c1ccncn1 [Compound 97]
C (EC1.5>25 μM),B (Fold Activation<350%),C (EC1.5>25 μM),B (Fold Activation<350%),O=C(Nc1ccccn1)c1cc(N2CCOCC2)nn2cc(-c3cccc(F)c3)nc12 [Compound 27]
C (EC1.5>25 μM),B (Fold Activation<350%),B (EC1.5 1−25 μM),B (Fold Activation<350%),O=C(Nc1ncccn1)c1ccnc2cc(-c3cccc(C(F)(F)F)c3)nn12 [Compound 101]
A (EC1.5<1 μM),A (Fold activation≧350%),C (EC1.5>25 μM),B (Fold Activation<350%),Cc1cccc(C(=O)Nc2ccnc3cc(-c4ccccc4C(F)(F)F)nn23)n1 [Compound 109]
C (EC1.5>25 μM),B (Fold Activation<350%),C (EC1.5>25 μM),B (Fold Activation<350%),O=C(Nc1cccnc1)c1cc(N2CCOCC2)nn2cc(-c3cccc(Cl)c3)nc12 [Compound 33]
A (EC1.5<1 μM),A (Fold activation≧350%),C (EC1.5>25 μM),B (Fold Activation<350%),Cc1ccnc(C(=O)Nc2ccnc3cc(-c4ccccc4C(F)(F)F)nn23)c1 [Compound 105]
B (EC1.5 1−25 μM),A (Fold activation≧350%),C (EC1.5>25 μM),B (Fold Activation<350%),O=C(Nc1ccnc2cc(-c3ccccc3C(F)(F)F)nn12)c1cscn1 [Compound 55]
C (EC1.5>25 μM),B (Fold Activation<350%),C (EC1.5>25 μM),B (Fold Activation<350%),O=C(Nc1cccc(CN2CCOCC2)n1)c1ccnc2cc(-c3cccc(C(F)(F)F)c3)nn12 [Compound 91]

# The remaining lines, values behind:
SMILES,TAMRA EC1.5 (μM) [1],TAMRA % Fold Act [1],TRP EC1.5 (μM) [2],TRP % Fold Act [2]
O=C(Nc1cccnc1)c1cc(N2CCOCC2)nn2cc(-c3cccc(F)c3)nc12 [Compound 28],C (EC1.5>25 μM),B (Fold Activation<350%),C (EC1.5>25 μM),B (Fold Activation<350%)
O=C(Nc1nccs1)c1cc(N2CCOCC2)nn2cc(-c3cccc(Cl)c3)nc12 [Compound 30],C (EC1.5>25 μM),B (Fold Activation<350%),C (EC1.5>25 μM),B (Fold Activation<350%)
O=C(Nc1ccccn1)c1cc(N2CCOCC2)nn2cc(-c3cccc(C(F)(F)F)c3)nc12 [Compound 49],C (EC1.5>25 μM),B (Fold Activation<350%),C (EC1.5>25 μM),B (Fold Activation<350%)
O=C(Nc1nccs1)c1cc(N2CCOCC2)nn2cc(-c3ccccc3C(F)(F)F)nc12 [Compound 42],B (EC1.5 1−25 μM),B (Fold Activation<350%),C (EC1.5>25 μM),B (Fold Activation<350%)
O=C(Nc1nccs1)c1ccnc2cc(-c3cccc(C(F)(F)F)c3)nn12 [Compound 87],C (EC1.5>25 μM),B (Fold Activation<350%),C (EC1.5>25 μM),B (Fold Activation<350%)
O=C(Nc1ccnc2cc(-c3ccccc3C(F)(F)F)nn12)c1cccc(N2CCC2)n1 [Compound 64],A (EC1.5<1 μM),B (Fold Activation<350%),C (EC1.5>25 μM),B (Fold Activation<350%)
O=C(Nc1cccnc1)c1ccnc2cc(-c3cccc(C(F)(F)F)c3)nn12 [Compound 85],C (EC1.5>25 μM),B (Fold Activation<350%),C (EC1.5>25 μM),B (Fold Activation<350%)
O=C(Nc1nccs1)c1cc(N2CCOCC2)nn2cc(-c3cccc(C(F)(F)F)c3)nc12 [Compound 47],C (EC1.5>25 μM),B (Fold Activation<350%),C (EC1.5>25 μM),B (Fold Activation<350%)
O=C(Nc1ccccn1)c1cc(N2CCOCC2)nn2cc(-c3ccccc3F)nc12 [Compound 39],C (EC1.5>25 μM),B (Fold Activation<350%),C (EC1.5>25 μM),B (Fold Activation<350%)
